The test system of experiment [1] is matrix metalloproteinase-9 (MMP-9). In words: Inhibition of MMP-9 gene expression/synthesis in platelet-monocyte aggregates adherent to collagen type I. Particulars: adhered to collagen type I for 18 hours, 9 independent experiments. It counts as cell-based, Human. As to the method:
Inhibition of MMP-9 Gene Expression in Platelet-Monocyte Aggregates by the Dipyridamole Component of Aggrenox® (AGG)
Aggrenox® (AGG) is a fixed dosed combination of extended-release dipyridamole (DIP) and aspirin (ASA). AGG is recommended in the protection of secondary stroke and transient ischemic attacks. It also increases tissue perfusion in patients with stable angina or Raynaud's disease. It was determined if AGG blocked the synthesis of inflammatory genes produced by platelet-monocyte aggregates.
Human platelets and monocytes were pretreated with Dipyridamole (DIP) (5 μg/ml), ASA (625 ng/ml), or a DIP/ASA mixture (AGG); 5 μg/ml: 625 ng/ml, an 8:1 ratio of DIP/ASA). The cells were adhered to collagen type I. Synthesis of matrix metalloproteinase-9 (MMP-9) was determined. […] AGG and DIP reduced MMP-9 expression (53%, 61%, and a 17% reduction in MMP-9 synthesis compared to untreated cells for AGG, DIP, and ASA, respectively; results shown in FIG. 1). The inhibitory actions of AGG on gene expression are due to the DIP component of this |drug|.
FIG. 1: The Dipyridamole component of Aggrenox attenuates MMP-9 synthesis by monocytes (monos) adherent to platelets (pits) and collagen. […] The cells were subsequently adhered to Collagen Type 1 for 18 hours and MMP-9 expression was measured. […]

The conditions of experiment [2]: ESPS-2; compared with aspirin; cited from earlier work.

Consider `CC(=O)Oc1ccccc1C(=O)O` [ASA, acetylsalicalic acid], for which the “reduction in MMP-9 synthesis compared to untreated cells” value in experiment [1] (human platelets and monocytes pretreated 15 minutes with 625 ng/ml) is 17%.
For the compound `OCCN(CCO)c1nc(N2CCCCC2)c2nc(N(CCO)CCO)nc(N3CCCCC3)c2n1` [DIP, 2,6-bis(diethanolamino)-4,8-dipiperidino-pyrimido[5,4-d]pyrimidine], the “reduction of stroke risk” value in experiment [2] is “as effective as low-dose aspirin”. Further, in experiment [1] (human platelets and monocytes pretreated 15 minutes with 5 μg/ml), the “reduction in MMP-9 synthesis compared to untreated cells” value is on record as 61%.

The values are drawn from patent publication US20050282830A1, “Use of dipyridamole or mopidamole for treatment and prevention of MMP-9-dependent disorders” (Boehringer Ingelheim International GmbH, priority 2003, published 2005).
